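Exposure lasted 48 hours, with cells grown in 96-well plates and compounds tested at five concentrations. GI50 = concentration required for 50% inhibition of growth. TGI is the concentration that stops growth completely.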
Experiments:
Test in all cases: NCI-60 cell line screen, 48 h; in the data active = GI50 below about 0.43 µM; inactive = the rest
786-0 renal = tested on: 786-0 renal
ACHN renal = tested on: ACHN renal
HT29 colon = tested on: HT29 colon
LOX IMVI melanoma = tested on: LOX IMVI melanoma
SF-295 CNS = tested on: SF-295 CNS
SK-MEL-28 melanoma = tested on: SK-MEL-28 melanoma
SN12C renal = tested on: SN12C renal
SR leukemia = tested on: SR leukemia
SW-620 colon = tested on: SW-620 colon

O=C(O)C1=C(C(=O)Nc2ccc(NC(=O)C3=C(C(=O)O)C4C=CC3C4)cc2)C2C=CC1C2
> 100 µM: TGI (786-0 renal) | TGI (ACHN renal) | TGI (HT29 colon) | TGI (LOX IMVI melanoma) | TGI (SF-295 CNS) | TGI (SK-MEL-28 melanoma) | TGI (SN12C renal) | TGI (SR leukemia) | TGI (SW-620 colon)

COC(=O)C1=C(c2ccc3c(c2)OCO3)OC(c2cc(OC)c(OC)c(OC)c2)C1 (stereo not given)
> 100 µM: TGI (786-0 renal) | TGI (ACHN renal) | TGI (LOX IMVI melanoma) | TGI (SF-295 CNS) | TGI (SK-MEL-28 melanoma) | TGI (SN12C renal) | TGI (SR leukemia) | TGI (SW-620 colon)
4.63 µM: TGI (HT29 colon)

COC1OC2COC(c3ccccc3)OC2C(O)C1Br (stereo not given)
> 100 µM: TGI (786-0 renal) | TGI (ACHN renal) | TGI (HT29 colon) | TGI (LOX IMVI melanoma) | TGI (SF-295 CNS) | TGI (SK-MEL-28 melanoma) | TGI (SN12C renal) | TGI (SR leukemia) | TGI (SW-620 colon)

O=C(Nc1ccn(CCI)c(=O)n1)c1ccccc1
> 100 µM: TGI (786-0 renal) | TGI (ACHN renal) | TGI (HT29 colon) | TGI (LOX IMVI melanoma) | TGI (SF-295 CNS) | TGI (SK-MEL-28 melanoma) | TGI (SN12C renal) | TGI (SR leukemia) | TGI (SW-620 colon)

CCC(Oc1ccc(OC)c2ccccc(=O)c12)C(=O)O (stereo not given)
> 100 µM: TGI (786-0 renal) | TGI (ACHN renal) | TGI (HT29 colon) | TGI (LOX IMVI melanoma) | TGI (SF-295 CNS) | TGI (SK-MEL-28 melanoma) | TGI (SN12C renal) | TGI (SR leukemia) | TGI (SW-620 colon)

CC(C)c1cc(OCC(O)CO)cc(C(C)C)c1 (stereo not given)
> 100 µM: TGI (786-0 renal) | TGI (ACHN renal) | TGI (HT29 colon) | TGI (LOX IMVI melanoma) | TGI (SF-295 CNS) | TGI (SK-MEL-28 melanoma) | TGI (SN12C renal) | TGI (SR leukemia) | TGI (SW-620 colon)

O=C1C2Nc3ccccc3SC2C(=O)N1c1ccccc1C(F)(F)F (stereo not given)
78.2 µM: TGI (SN12C renal)
46.2 µM: TGI (SF-295 CNS)
68.5 µM: TGI (786-0 renal)
> 100 µM: TGI (ACHN renal) | TGI (HT29 colon) | TGI (LOX IMVI melanoma) | TGI (SK-MEL-28 melanoma) | TGI (SR leukemia) | TGI (SW-620 colon)

O=C(O)CCSC(=O)Nc1ccc(N=Nc2ccccc2)cc1
> 100 µM: TGI (786-0 renal) | TGI (ACHN renal) | TGI (HT29 colon) | TGI (LOX IMVI melanoma) | TGI (SF-295 CNS) | TGI (SK-MEL-28 melanoma) | TGI (SN12C renal) | TGI (SR leukemia) | TGI (SW-620 colon)

CC1=C(C(=O)Nc2ccc([N+](=O)[O-])cc2)C(c2ccccc2F)C(C(=O)Nc2ccc([N+](=O)[O-])cc2)=C(C)N1
48.3 µM: TGI (SN12C renal)
95.2 µM: TGI (HT29 colon)
63 µM: TGI (SF-295 CNS)
31.3 µM: TGI (LOX IMVI melanoma)
39.8 µM: TGI (ACHN renal)
> 100 µM: TGI (786-0 renal) | TGI (SK-MEL-28 melanoma) | TGI (SW-620 colon)

COc1ccc2nc(NC(=O)C(=O)C(C#N)c3ccc(Cl)c(Cl)c3)sc2c1 (stereo not given)
> 100 µM: TGI (786-0 renal) | TGI (ACHN renal) | TGI (HT29 colon) | TGI (LOX IMVI melanoma) | TGI (SF-295 CNS) | TGI (SK-MEL-28 melanoma) | TGI (SN12C renal) | TGI (SW-620 colon)

Cc1cccc2nc3cccc(C(=O)NCCN(C)C)c3nc12
5.44 µM: TGI (HT29 colon)
14.6 µM: TGI (786-0 renal)
11.2 µM: TGI (SW-620 colon)
14.3 µM: TGI (SF-295 CNS)
11.6 µM: TGI (LOX IMVI melanoma)
2.93 µM: TGI (SK-MEL-28 melanoma)
5.8 µM: TGI (ACHN renal)
3.15 µM: TGI (SN12C renal)

O=C(NS(=O)(=O)c1ccccc1)C(Cc1ccccc1)C(Cc1ccccc1)C(=O)NS(=O)(=O)c1ccccc1 (stereo not given)
> 100 µM: TGI (786-0 renal) | TGI (ACHN renal) | TGI (HT29 colon) | TGI (LOX IMVI melanoma) | TGI (SF-295 CNS) | TGI (SK-MEL-28 melanoma) | TGI (SN12C renal) | TGI (SR leukemia) | TGI (SW-620 colon)

CN1CC(=O)N(C)c2nc[nH]c2C1=O
> 100 µM: TGI (786-0 renal) | TGI (ACHN renal) | TGI (HT29 colon) | TGI (LOX IMVI melanoma) | TGI (SF-295 CNS) | TGI (SK-MEL-28 melanoma) | TGI (SN12C renal) | TGI (SR leukemia) | TGI (SW-620 colon)

CC12Oc3ccc4ccccc4c3CC1Cc1c(ccc3ccccc13)O2 (stereo not given)
> 100 µM: TGI (786-0 renal) | TGI (ACHN renal) | TGI (HT29 colon) | TGI (LOX IMVI melanoma) | TGI (SF-295 CNS) | TGI (SK-MEL-28 melanoma) | TGI (SW-620 colon)

O=C1OC(OCC#CCOC2OC(=O)C(Cl)=C2Cl)C(Cl)=C1Cl (stereo not given)
11.1 µM: TGI (LOX IMVI melanoma)
30.1 µM: TGI (SK-MEL-28 melanoma)
16.8 µM: TGI (786-0 renal)
60.4 µM: TGI (SF-295 CNS)
4.99 µM: TGI (SR leukemia)
30.5 µM: TGI (ACHN renal)
32.5 µM: TGI (SN12C renal)
18.4 µM: TGI (SW-620 colon)
18.1 µM: TGI (HT29 colon)

CC1(C)OC(=O)C=C([O-])O1.CC1(C)OC(=O)C=C([O-])O1.CC[O-].CC[O-].[Ti+4]
> 100 µM: TGI (786-0 renal) | TGI (ACHN renal) | TGI (HT29 colon) | TGI (LOX IMVI melanoma) | TGI (SF-295 CNS) | TGI (SK-MEL-28 melanoma) | TGI (SR leukemia) | TGI (SW-620 colon)
inactive: GI50 (786-0 renal) > 100 µM | GI50 (ACHN renal) > 100 µM | GI50 (HT29 colon) > 100 µM | GI50 (LOX IMVI melanoma) > 100 µM | GI50 (SF-295 CNS) > 100 µM | GI50 (SK-MEL-28 melanoma) > 100 µM | GI50 (SR leukemia) > 100 µM | GI50 (SW-620 colon) > 100 µM

O=C(CC1C(=O)Nc2ccccc2S1=O)Nc1ccc(Cl)cc1 (stereo not given)
> 100 µM: TGI (786-0 renal) | TGI (ACHN renal) | TGI (HT29 colon) | TGI (LOX IMVI melanoma) | TGI (SF-295 CNS) | TGI (SK-MEL-28 melanoma) | TGI (SN12C renal) | TGI (SR leukemia) | TGI (SW-620 colon)
